What all share (type): cell-based
Experiment [1] relates to HTT mRNA. Briefly: Gene panel canonical junction qPCR assay, decrease in CJ mRNA, Table 3. Conditions: decrease in CJ mRNA levels, canonical junction qPCR, gene panel. The procedure, abridged:
(§1)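 Cells: A673 or K562; 24 h compound exposure, 37 °C, 5% CO2; 11-pt 3-fold series from 10 uM final; DMSO ≤0.25%. Lysate → cDNA → qPCR with junction-spanning primers/probe for CJ transcript. ΔCt vs housekeeper, ΔΔCt vs DMSO, 2^(−ΔΔCt), % response, 4PL → IC50.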

Experiment [2] has as its system MYB mRNA. Described as above. Conditions: decrease in CJ mRNA levels, canonical junction qPCR, gene panel. In short, it runs like this: as §1
The test system of experiment [3] is SH-SY5Y (human neuroblastoma) cells. In words: Cell viability, Cell Titer Glo 2.0 assay. Conditions: read-out: Viability SHSY5Y.3 GI50. In short, it runs like this: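 CellTiter-Glo 2.0 luminescence read-out after 72 h compound exposure (37 °C, 5% CO2); medium-only wells as blank. DMSO 0.1% final.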
A general note: In ATP-based viability assays light output follows the ATP content of the culture.

Experiment [4] relates to MYB mRNA. In words: Splicing RT-qPCR assay (THP), Table 2A. Conditions: Table 2A, THP; for AC50: MYB alternative junction (AJ) mRNA, read-out: MYB AJ (AC50, increase in alternative junction mRNA); for IC50: MYB canonical junction (CJ) mRNA, read-out: MYB CJ (IC50, decrease in canonical junction mRNA). In general terms: Real-time PCR tracks product formation cycle by cycle.

For experiment [5], the system named is HTT mRNA. In words: Splicing RT-qPCR assay (THP), Table 2A. The following applies: Table 2A, THP; for AC50: HTT alternative junction (AJ) mRNA, read-out: HTT AJ (AC50, increase in alternative junction mRNA); for IC50: HTT canonical junction (CJ) mRNA, read-out: HTT CJ (IC50, decrease in canonical junction mRNA).

The term IC50 denotes the concentration that gives 50% inhibition. In general, GI50 refers to the concentration at which growth is held to half of that of the control. The AC50 is the midpoint of the concentration-response curve, whichever way the signal moves.

Regarding `CNCC1CN(c2ccc(C(=O)Nc3cn4cc(C)nc(CNS(C)(=O)=O)c4n3)c3nn(C)cc23)C1` [Compound 863], the IC50 in experiment [1], in experiment [2], in experiment [4] and in experiment [5] was > 10 µM throughout. Further, in experiment [3], the GI50 was > 10 µM. The AC50 in experiment [4] and in experiment [5] was > 10 µM in each case.

On to `CCNC1(C)CCN(c2ccc(C(=O)Nc3cn4cc(C)nc(CNS(C)(=O)=O)c4n3)c3nn(C)cc23)CC1` [Compound 864], for which the IC50 was > 10 µM in experiment [1], 1 to 10 µM in experiment [2], 1 to 10 µM in experiment [4] and > 10 µM in experiment [5]. For the same molecule, the 50% growth inhibitory concentration (GI50) in experiment [3] was > 10 µM. Further, the AC50 in experiment [4] is 1 to 10 µM; in experiment [5] it was > 10 µM.

For `Cc1cn2cc(NC(=O)c3ccc(N4CCC(N)CC4)c4cn(C)nc34)nc2c(CNS(C)(=O)=O)n1` [Compound 865, 4-(4-amino-1-piperidyl)-N-[8-(methanesulfonamidomethyl)-6-methyl-imidazo[1,2-a]pyrazin-2-yl]-2-methyl-indazole-7-carboxamide], the IC50 is > 10 µM in experiment [1], 1 to 10 µM in experiment [2], 1 to 10 µM in experiment [4] and > 10 µM in experiment [5]. In addition, the GI50 in experiment [3] is > 10 µM. Moreover, the AC50 in experiment [4] is 1 to 10 µM; in experiment [5], > 10 µM.

For `Cc1cn2cc(NC(=O)c3ccc(N4CCCC(N)C4)c4cn(C)nc34)nc2c(CNS(C)(=O)=O)n1` (stereo not drawn) [Compound 866], the IC50 in experiment [1], in experiment [2], in experiment [4] and in experiment [5] was > 10 µM each time. In addition, the GI50 in experiment [3] is > 10 µM. For the same molecule, the half-maximal activity concentration (AC50) in experiment [4] and in experiment [5] was > 10 µM throughout.

As to `Cn1cc2cc(NC(=O)c3ccc(N4CCC(NC5CC5)CC4)c4cn(C)nc34)c(O)c(CNS(C)(=O)=O)c2n1` [Compound 867], the IC50 in experiment [1], in experiment [2], in experiment [4] and in experiment [5] was > 10 µM each time. Moreover, the GI50 in experiment [3] was > 10 µM. The AC50 in experiment [4] and in experiment [5] was > 10 µM each time.

Consider `CC(c1cc(NC(=O)c2ccc(N3CCC(NC4CC4)CC3)c3cn(C)nc23)cc2cn(C)nc12)S(=O)(=O)N(C)C` (stereo not drawn) [Compound 868], for which the IC50 in experiment [1], in experiment [2], in experiment [4] and in experiment [5] was > 10 µM throughout. Also, the GI50 in experiment [3] was in the range of 1 to 10 µM. For the same molecule, the AC50 in experiment [4] and in experiment [5] was > 10 µM in each case.

Consider `Cc1c2cc(NC(=O)c3ccc(N4CCC(NC5CC5)CC4)c4cn(C)nc34)cc(CNS(C)(=O)=O)c2nn1C` [Compound 869], for which the IC50 in experiment [1], in experiment [2], in experiment [4] and in experiment [5] was > 10 µM each time. Also, in experiment [3], the GI50 is > 10 µM. In addition, the AC50 in experiment [4] and in experiment [5] was > 10 µM throughout.

In the case of `Cc1cn2nc(NC(=O)c3ccc(N4CCC(NC5CC5)CC4)c4cn(C)nc34)cc(CN)c2n1` [Compound 870], the IC50 in experiment [1], in experiment [2], in experiment [4] and in experiment [5] was > 10 µM in each case. Besides, in experiment [3], the concentration for 50% growth inhibition (GI50) was 0.1 to 1 µM. The concentration at half-maximal activity (AC50) in experiment [4] and in experiment [5] was > 10 µM each time.

`Cn1cc2cc(NC(=O)c3ccc(N4CCC(NC5CC5)CC4)c4cn(C)nc34)cc(CNC(=N)N)c2n1` [Compound 871]: the IC50 in experiment [1] is > 10 µM; in experiment [2], 1 to 10 µM; in experiment [4], 1 to 10 µM; in experiment [5], > 10 µM. Also, the GI50 in experiment [3] was > 10 µM. For the same molecule, the results for the AC50 in experiment [4] and in experiment [5] were 1 to 10 µM and > 10 µM, respectively.

The record behind these values is US20260285853A1, “COMPOUNDS AND METHODS FOR MODULATING SPLICING” (REMIX THERAPEUTICS INC., priority 2023, published 2026).
